Test results as given in patent US20030023101A1, “Method for production of maleic anhydride” (priority 2001, published 2003).

Columns and labels:
[1] = Maximum dissolving concentration of organic solvent in water (Referential Example 1); assay type: physicochemical; conditions: solvent as solute in 80 g purified water, 20° C., visual observation
Procedure: One species of organic solvent or a mixture of two or more species of solvent to be used in this invention was selected by the following method. In a tightly closable glass vessel measuring 100 ml in inner volume and furnished with a lid, 80 g of purified water kept at a temperature of 20° C. was placed and stirred with a stirrer and meanwhile a given organic solvent or solvent mixture was added dropwise to the stirred water. The state of solution consequently assumed after one hour's standing was visually observed. When any residue of the solute was found in the solution, the confirmation of the solubility mentioned above was repeated, with the quantity of dropwise addition per round decreased. The minimum quantity of the organic solvent or the solvent mixture as the solute to be used for the dropwise addition was set at 0.02 g. […] Specifically, the magnitude found by the following formula,
(§1) Maximum dissolving concentration (% by weight)={Solute/(Solute+Solvent)}×100
is the maximum dissolving concentration contemplated by this invention. […] The present example concerns computation of the maximum dissolving concentration of a given solute in 80 g of a solvent in accordance with the formula mentioned above. The maximum dissolving concentration was determined at a solution temperature of 20° C. Incidentally, when two or more species of organic solvent are mixed and used in the distillation for azeotropic dehydration, the maximum dissolving concentration of the mixture is determined by the method described above.

[2] = Maximum dissolving concentration of maleic acid in the solvent (Referential Example 2); assay type: physicochemical; conditions: maleic acid as solute in 80 g solvent, 20° C., insoluble = residue even at 0.01 g
Procedure: (§2) In a tightly closable glass vessel measuring 100 ml in inner volume and furnished with a lid, 80 g of a given solvent kept at a temperature of 20° C. was placed and stirred with a stirrer and meanwhile maleic acid or fumaric acid of the special reagent grade as defined in the paragraph covering the determination of maximum dissolution concentration was added to the stirred solvent. The state of solution consequently assumed was visually confirmed. When the solute left any residue behind in the solution even after one hour's stirring, the sample was reported as insoluble. When the residue of the solute was found, the confirmation of the maximum dissolving concentration mentioned above was repeated, with the quantity of addition per round decreased. The minimum quantity of addition was set at 0.01 g. Thus, the maximum quantity of dropwise addition (weight of solute) which was recognized to have given rise to no residue of elute was determined and computed as the maximum dissolution concentration in 80 g of a given solvent. Specifically, the magnitude found by the following formula,
as §1
(§3) is the maximum dissolving concentration contemplated by this invention. When the elute left any residue behind in the solution even at the minimum quantity of dropwise addition of 0.01 g ([…]), the sample was reported as insoluble. Incidentally, the maximum dissolution concentration was measured at a solution temperature of 20° C.

[3] = Maximum dissolving concentration of fumaric acid in the solvent (Referential Example 2); assay type: physicochemical; conditions: fumaric acid as solute in 80 g solvent, 20° C., insoluble = residue even at 0.01 g
Procedure: as §2, §1, §3

[4] = 20° C., normal pressure (1013 hPa); Chemical Handbook (Maruzen), Beilstein Online; cited from earlier work

Maximum dissolving concentration in water [1] | Maximum dissolving concentration in solvent, Maleic acid [2] | Maximum dissolving concentration in solvent, Fumaric acid [3] | SMILES | Maximum dissolving concentration of the azeotropic solvent (1) in water [4] | further results
1.85 % by weight | 4.14 % by weight | 0.14 % by weight | CC(=O)CC(C)C [MIBK, methyl isobutylketone] | 1.91 % by weight | –
– | – | – | CCCCC(CC)CO (stereo not drawn) [2-ethyl-1-hexnol] | 0.10 % by weight | –
– | – | – | CCCC(=O)CC [3-hexnaone] | 1.57 % by weight | –
0.41 % by weight | 1.22 % by weight | 0.02 % by weight | CC(C)C(=O)C(C)C [DIPK, diisopropylketone] | 0.43 % by weight | –
– | – | – | C=CCOC(C)=O [allyl acetate] | 2.8 % by weight | –
– | – | – | CCCCCC(C)=O [2-heptanone] | 0.44 % by weight | –
0.05 % by weight | 0.62 % by weight | Insoluble | CC(C)CC(=O)CC(C)C [DIBK, diisobutyl ketone] | – | –
– | – | – | CCC(=O)CC [3-pentanone] | 4.6 % by weight | –
– | – | – | CCCCC(C)=O [2-hexanone] | 1.75 % by weight | –
– | – | – | CCCCCOC(C)=O [amyl acetate] | 0.25 % by weight | –

SMILES | Maximum dissolving concentration in water [1] | Maximum dissolving concentration in solvent, Maleic acid [2] | Maximum dissolving concentration in solvent, Fumaric acid [3] | Maximum dissolving concentration of the azeotropic solvent (1) in water [4] | further results
Cc1ccccc1C [o-Xylene, o-xylene] | 0.02 % by weight | Insoluble | Insoluble | – | Maximum dissolving concentration in water ([1]; listed as o-xylene): low solubility in water; Maximum dissolving concentration in solvent, Maleic acid ([2]; listed as o-xylene): did not dissolve; Maximum dissolving concentration in solvent, Fumaric acid ([3]; listed as o-xylene): did not dissolve
